What was measured:
mouse myoblasts C2C12 [1] = experiment: Proliferation of skeletal muscle cells (Click-iT Plus EdU, flow cytometry); type: cell-based; conditions: 24 h
Text: Experimental cell strain: mouse myoblasts C2C12 (hereinafter referred to as C2C12 cells) of the C2C12 cell strain (ATCC CRL-1772™) purchased from the American Type Culture Collection (ATCC®).
Culture medium: Dulbecco's modified Eagle's medium, purchased from Gibco, US, Gat.11965-092. 10% of fetal bovine serum (FBS), purchased from Gibco, US, Gat.10437-028. 1% of antibiotic, purchased from Gibco, US, Gat.15240-062.
Reagents: 10×DPBS buffer (purchased from Gibco, Gat 14200-075), trypan blue dead cell dye (purchased from Lonza, Cat 17-942E), trypsin-EDTA (purchased from Gibco, Cat. 15400-054), and cell proliferation Click-iT™ Plus EdU kit (Invitrogen; Cat. C10632).
First, 1×10^5 cells were inoculated into each well of a 6-well culture plate to culture at 37° C. for 24 h. The cultured cells were divided into three groups: an experimental group, a blank group, and a control group.
Blank group: only a culture medium was added to culture at 37° C. for 24 h.
Control group: 10% of PBS was added to culture at 37° C. for 24 h, which was used as a positive control group. […]
Next, the specific reagent EdU from the cell proliferation kit was added to culture for 2 h. […] Finally, the fluorescence signal of the to-be-tested cell solution in each well was measured by the flow cytometry (under 488 nm of excitation light and 530/30 nm of scattered light), and the quantity of cells was calculated. […]

mouse myoblasts C2C12 [2] = experiment: Activity of mitochondria in skeletal muscle cells affected by active substances (fluorescence picture); type: cell-based; conditions: 100 nM, 24 h, compared with blank group
Method: The experimental medium was removed from the culture plate, and the culture plate was washed with 1 mL of 1×PBS for two times. […] was added into each well to react for 5 min in the dark. After the reaction was completed, a cell medium was added to stop the reaction. The cells and cell medium in each well were collected in a 1.5 mL centrifuge tube, and the centrifuge tube containing the cells and cell medium was centrifuged at 400×g for 5 min. After the centrifugation, a supernatant was removed. The cells were washed with 1×DPBS, and then the centrifuge tube containing the cells was centrifuged again at 400×g for 5 min. After the centrifugation again, a supernatant was removed from each centrifuge tube, and 100 μL of JC-1 dye was added into each centrifuge tube and left to stand for 15 min in the dark. After 15 min, each centrifuge tube was centrifuged at 400×g for 5 min. […] Finally, the fluorescence signal of the to-be-tested cell solution in each well was measured by the flow cytometry (excitation light: 488 nip and scattered light: 527 nm & 590 nm), and the membrane potential of mitochondria was calculated, to analyze the activity of mitochondria. […] Finally, a picture of the fluorescence signal of the to-be-tested cell solution was taken by a. camera to observe the activity of mitochondria.

SMILES: O[C@H]1[C@H](O)[C@@H](O)[C@H](O)[C@@H](O)[C@H]1O [TCI-GHU-01, myo-inositol]
- increase of quantity of skeletal muscle cells (mouse myoblasts C2C12 [1]; 100 nM, vs blank group): 48.2%
- quantity of skeletal muscle cells relative to the blank group (mouse myoblasts C2C12 [1]; TCI-GHU-01 100 nM, positive control 10%, blank group regarded as 100%): 148.2%
- activity of mitochondria in skeletal muscle cells (small light spots around the nuclei) (mouse myoblasts C2C12 [2]): higher than that of the blank group

From patent US20220339214A1, “KIRIN FRUIT FERMENTATION AND METHODS FOR IMPROVING METABOLISM BY USING THE SAME” (TCI CO., LTD., priority 2021, published 2022)
